Laboratory results: patent publication US20150315218A1, “SALTS OF PRODRUGS OF PIPERAZINE AND SUBSTITUTED PIPERIDINE ANTIVIRAL AGENTS” (Bristol-Myers Squibb Company, priority 2004, published 2015)
Like-named read-outs stand apart in the source and are kept apart here.

Assays:
[1] = Single-dose toxicokinetic and tolerability study of prodrugs in dogs; assay type: in vivo, dog; conditions: for concentration at 24 h / AUC(0-inf) / half-life: dog, plasma; for concentration at 24 h: oral, read-out: C24h; for AUC(0-inf) / half-life: po; for half-life: read-out: T1/2 (converted)
Protocol: A multi-phase study was conducted to evaluate the tolerability of the prodrug, Iab (monolysine salt) at dosages of 24, 90, or 240 mg/kg (free acid, molar equivalent to 19, 71, or 190 mg/kg of parent IVa, respectively) and the toxicokinetics of lab and IVa (4). Iab was administered to two female dogs/group once daily either as an aqueous solution (24 or 90 mg/kg) or dry-filled capsules (24, 90 [once and twice daily] or 240 mg/kg). The endpoints were: clinical signs, body weight, food consumption, and plasma toxicokinetics of lab and IVa. In all cases, a 1-week washout period was used between doses for all phases of the study. […]
On day 1, Icb was administered to one dog/sex/group once daily in dry-filled capsules at the above dosages. A 1-week washout period was used between doses in the study. On day 8, Icb was administered to one dog/sex/group once daily as an aqueous solution at 25 mg/kg or twice daily in dry-filled capsules at 46 or 125 mg/kg BID.

[2] = Single-dose oral toxicokinetic study of prodrugs in rats; assay type: in vivo, rat; conditions: for concentration at 24 h / Cmax / AUC / half-life: male, Sprague Dawley, rat, plasma; for concentration at 24 h: oral, read-out: C24h; for Cmax / AUC / half-life: po; for AUC: read-out: AUC from zero to ∞; for half-life: read-out: T1/2 (converted)
Protocol: A 1-day oral toxicokinetic study in rats was conducted using the prodrug Iab (monolysine salt). Iab was administered at dosages of 16, 72, and 267 mg/kg (free acid) by oral gavage to three male rats/group using water as the vehicle (solution formulation). The dosages of prodrug free acid correspond to IVa (parent) molar equivalent dosages of 13, 57, and 211 mg/kg, respectively. The endpoint evaluated was plasma toxicokinetics of Iab and IVa in the individual rats.
A 1-day oral toxicokinetic study in rats was conducted by using the prodrug Ibb (monolysine salt). Ibb was administered at dosages of 19, 64, and 236 mg/kg (free acid) by oral gavage to three male rats/group using water as the vehicle (solution formulation).
A 1-day oral toxicokinetic study in rats was conducted using the prodrug Icb (disodium salt). Icb was administered at dosages of 5, 25, and 200 mg/kg (free acid) by oral gavage to three male rats/group using water as the vehicle (solution formulation).

[3] = IV and PO pharmacokinetic studies of prodrug salts (Iab, Ibb, Icb) in the rat, with historical parent data; assay type: in vivo, Sprague-Dawley rats; conditions: for AUC: read-out: AUCtot; for Cmax: read-out: Cmax; for half-life: read-out: T1/2 (converted)
Protocol: All blood samples (0.3 mL) were colleted in microtainers containing K2EDTA (Becton Dickinson, Franklin Lakes, N.J.) and placed on chipped ice. After centrifugation, plasma was separated and stored at −20° C. until analysis. The mono-lysine salt of Iab (Form 3, Lot 1) was used for the pharmacokinetic studies. The dosing solutions of Iab were prepared in either sterile water (for IV administration in dogs and monkeys) or distilled water (for all other dose administration).
Male Sprague-Dawley rats (300-350 g, Hilltop Lab Animals, Inc., Scottsdale, Pa.) with cannulas implanted in the jugular vein were used. The rats were fasted overnight in the PO pharmacokinetic studies. Blood samples were collected from the jugular vein.
In the IV study, Iab was delivered at 1.4 mg/kg (free acid, or 1.1 mg/kg of IVa equivalent) as a bolus over 0.5 min (n=3).
In the PO study, Iab was administered at 7.9 mg/kg (free acid, or 6.3 mg/kg of IVa equivalent) by oral gavage (n=3). The concentration of the dosing solution was 4.0 mg/mL, and the dosing volume was 2 mL/kg.
The pharmacokinetic parameters of Iab and IVa were calculated by Non-Compartmental Analysis using the […]™ software program (version 4.0.2, InnaPhase Co., Philadelphia, Pa.). The Cmax and Tmax values were recorded directly from experimental observations. The AUC0-n and AUCtot values were calculated using the mixed log-linear trapezoidal summations. The total body clearance (Cl), mean residence time (MRT), and the steady state volume of distribution (Vss) were also calculated after intravenous administration. The absolute oral bioavailability (expressed as %) was estimated by taking the ratio of dose-normalized AUC values after oral doses to those after intravenous doses.
All blood samples (0.3 mL) were colleted in microtainers containing K2EDTA (Becton Dickinson, Franklin Lakes, N.J.) and placed on chipped ice. After centrifugation, plasma was separated and stored at −20° C. until analysis. The mono-lysine salt of Ibb (Form 3) was used for the pharmacokinetic studies. The dosing solutions of Ibb were prepared in either sterile water (for IV administration in dogs and monkeys) or distilled water (for all other dose administration).
(§1) The Cmax and Tmax values were recorded directly from experimental observations. The AUC0-n and AUCtot values were calculated using the mixed log-linear trapezoidal summations. The total body clearance (Cl), mean residence time (MRT), and the steady state volume of distribution (Vss) were also calculated after intravenous administration. The absolute oral bioavailability (expressed as %) was estimated by taking the ratio of dose-normalized AUC values after oral doses to those after intravenous doses.
In the IV study, Icb was delivered at 1.4 mg/kg (free acid, or 1.1 mg/kg of IVe equivalent) as a bolus over 0.5 min (n=3).
In the PO study, Icb was administered at 6.9 mg/kg (free acid, or 5.6 mg/kg of IVe equivalent) by oral gavage (n=3).
as §1

[4] = female, 25 mg/kg, dog 2201F, day 1, Ibb 25 mg/kg QD dry-filled capsules
[5] = female, 25 mg/kg, dog 2201F, day 8, Ibb 25 mg/kg QD aqueous solution
[6] = female, 92 mg/kg, dog 3201F, day 1, Ibb 92 mg/kg QD dry-filled capsules
[7] = female, 250 mg/kg, dog 4201F, day 1, Ibb 250 mg/kg QD dry-filled capsules
[8] = male, 25 mg/kg, dog 2101M, day 1, Ibb 25 mg/kg QD dry-filled capsules
[9] = male, 25 mg/kg, dog 2101M, day 8, Ibb 25 mg/kg QD aqueous solution
[10] = male, 92 mg/kg, dog 3101M, day 1, Ibb 92 mg/kg QD dry-filled capsules
[11] = male, 250 mg/kg, dog 4101M, day 1, Ibb 250 mg/kg QD dry-filled capsules

With `O=C(C(=O)N1CCN(C(=O)c2ccccc2)CC1)c1c[nH]c2c(-n3ccnn3)ncc(F)c12` [IVb] the “time post-second dose at which mean Cmax of parent was achieved” value ([1]; dogs, BID dosing of prodrug) was 1 to 2 h, the “time post-dose at which mean Cmax of parent was achieved” value ([1]; dogs, once daily (QD) dosing of prodrug) was 1 to 4 h and the concentration at 24 h [1, 4] was 688 nM. The concentration at 24 h [1, 5] was 107 nM, the concentration at 24 h ([1]; female, 46 mg/kg, dog 3201F, day 8, Ibb 46 mg/kg BID dry-filled capsules) was 307 nM and the concentration at 24 h [1, 6] was 202 nM. It also gave a concentration at 24 h ([1]; female, 125 mg/kg, dog 4201F, day 8, Ibb 125 mg/kg BID dry-filled capsules) of 1960 nM, a concentration at 24 h [1, 7] of 704 nM and an AUC(0-inf) [1, 4] of 136 µM·h. It also gave a half-life [1, 4] of 4.5 h, an AUC(0-inf) [1, 5] of 139 µM·h and an AUC(0-inf) ([1]; female, 46 mg/kg, dog 3201F, day 8, Ibb 46 mg/kg BID dry-filled capsules, emesis) of 1050 µM·h. For the same compound, the AUC(0-inf) ([1]; female, 92 mg/kg, dog 3201F, day 1, Ibb 92 mg/kg QD dry-filled capsules, emesis) was 329 µM·h, the half-life [1, 6] was 2.3 h and the AUC(0-inf) ([1]; female, 125 mg/kg, dog 4201F, day 8, Ibb 125 mg/kg BID dry-filled capsules, emesis) was 978 µM·h. The AUC(0-inf) ([1]; female, 250 mg/kg, dog 4201F, day 1, Ibb 250 mg/kg QD dry-filled capsules, emesis) was 745 µM·h, the half-life [1, 7] was 3.2 h and the concentration at 24 h [1, 8] was 8 nM. For the same compound, the concentration at 24 h [1, 9] was 547 nM, the concentration at 24 h ([1]; male, 46 mg/kg, dog 3101M, day 8, Ibb 46 mg/kg BID dry-filled capsules) was 10600 nM and the concentration at 24 h [1, 10] was 1900 nM. The concentration at 24 h ([1]; male, 125 mg/kg, dog 4101M, day 8, Ibb 125 mg/kg BID dry-filled capsules) was 54200 nM, the concentration at 24 h [1, 11] was 2610 nM and the AUC(0-inf) [1, 8] was 259 µM·h. The half-life [1, 8] was 1.5 h, the AUC(0-inf) [1, 9] was 324 µM·h and the half-life [1, 9] was 3.3 h. For the same compound, the AUC(0-inf) ([1]; male, 46 mg/kg, dog 3101M, day 8, Ibb 46 mg/kg BID dry-filled capsules, emesis) was 478 µM·h, the AUC(0-inf) ([1]; male, 92 mg/kg, dog 3101M, day 1, Ibb 92 mg/kg QD dry-filled capsules, emesis) was 111 µM·h and the half-life [1, 10] was 3.6 h. The AUC(0-inf) ([1]; male, 125 mg/kg, dog 4101M, day 8, Ibb 125 mg/kg BID dry-filled capsules, emesis) was 1390 µM·h, the AUC(0-inf) ([1]; male, 250 mg/kg, dog 4101M, day 1, Ibb 250 mg/kg QD dry-filled capsules, emesis) was 334 µM·h and the half-life [1, 11] was 4.1 h. For the same compound, the concentration at 24 h ([2]; 19 mg/kg (free acid)) was 48 nM, the concentration at 24 h ([2]; 64 mg/kg (free acid)) was 290 nM and the concentration at 24 h ([2]; 236 mg/kg (free acid)) was 29000 nM. The Cmax ([2]; 19 mg/kg) was 58000 nM, the AUC ([2]; 19 mg/kg) was 283 µM·h and the half-life ([2]; 19 mg/kg) was 2.1 h. The Cmax ([2]; 64 mg/kg) was 135000 nM, the AUC ([2]; 64 mg/kg) was 997 µM·h and the half-life ([2]; 64 mg/kg) was 2.1 h. The Cmax ([2]; 236 mg/kg) was 290000 nM, the AUC ([2]; 236 mg/kg) was 3700 µM·h and the half-life ([2]; 236 mg/kg) was 5.8 h. The “time post-dose at which mean maximum plasma concentration (Cmax) was achieved” value ([2]; rats, single oral dose of prodrug) was 1 to 3 h, the Vdss ([3]; IV IVb 1 mg/kg, historical IVb) was 0.49 ± 0.26 L/kg and the bioavailability ([3]; Sprague-Dawley (rats), breed of dogs and monkeys not stated, plasma, po, range over rats, dogs and monkeys, read-out: oral bioavailabilities of parent after administration of prodrug) was 50 to 310%. It also gave a bioavailability ([3]; Sprague-Dawley, plasma, historical parent, PO 5 mg/kg, read-out: Bioavailability (%)) of 60%, a Tmax ([3]; Sprague-Dawley, plasma, historical parent, PO 5 mg/kg, read-out: Tmax (hr), PO) of 4.7 h and an AUC ([3]; in vivo, po, 5 mg/kg) of 86 ± 33 µM·h. For the same compound, the Cmax ([3]; in vivo, po, 5 mg/kg) was 9500 ± 2800 nM, the half-life ([3]; male, Sprague-Dawley, plasma, iv, […]) was 3 ± 1.8 h and the bioavailability ([3]; male, Sprague-Dawley, plasma, oral prodrug, calculated from historical IV data of parent, read-out: Bioavailability (%) of parent from prodrug) was 50%. It also gave a Tmax ([3]; male, Sprague-Dawley, plasma, parent after oral prodrug (~5-6 mg/kg parent equivalent), read-out: Tmax (hr), PO) of 0.83 h, a Cmax ([3]; male, Sprague-Dawley, plasma, po, 6.6 mg/kg) of 19000 ± 1800 nM and a Tmax ([3]; male, Sprague-Dawley, plasma, po, 6.6 mg/kg, read-out: Tmax) of 0.83 ± 0.14 h. The AUC ([3]; plasma, iv, 1 mg/kg) was 24 ± 3.2 µM·h, the MRT ([3]; plasma, iv, 1 mg/kg, read-out: MRT) was 5.6 ± 3.6 h and the half-life ([3]; plasma, iv, 1 mg/kg) was 5.9 ± 4.9 h. The concentration at 24 h ([3]; plasma, oral, 5 mg/kg, read-out: C-24 hr) was 160 nM, the bioavailability ([3]; plasma, po, 5 mg/kg, read-out: Bioavailability) was 60% and the half-life ([3]; plasma, po, 5 mg/kg) was 3.7 ± 0.86 h. The Tmax ([3]; plasma, po, 5 mg/kg, read-out: Tmax) was 4.7 ± 1.2 h.
